Activity calls are given as the source filed them. The calls are words filed in the database; no cut-off is given here.
What was measured:
HepG2 [1] = assay: Cytotoxicity against human HepG2 cells up to 20 uM after 24 hrs by MTS assay; format: cell-based; details: hepg2, 24 h
HepG2 [2] = assay: Inhibition of TNF-alpha-induced NF-kappaB transactivation expressed in human HepG2 cells at 10 uM preincubated 1 hr before TNFalpha challenge measured after 1 hr by luciferase reporter gene assay; format: cell-based
HepG2 [3] = assay: Inhibition of TNF-alpha-induced NF-kappaB transactivation expressed in human HepG2 cells at 20 uM preincubated 1 hr before TNFalpha challenge measured after 1 hr by luciferase reporter gene assay; format: cell-based
HepG2 [4] = assay: Inhibition of TNF-alpha-induced iNOS mRNA expression in human HepG2 cells expressing NF-kappaB preincubated 1 hr before TNFalpha challenge measured after 6 hrs by RT-PCR analysis; format: functional, cell-based
HepG2 [5] = assay: Inhibition of TNF-alpha-induced COX2 mRNA expression in human HepG2 cells expressing NF-kappaB preincubated 1 hr before TNFalpha challenge measured after 6 hrs by RT-PCR analysis; format: functional, cell-based
HepG2 [6] = assay: Inhibition of TNF-alpha-induced NF-kappaB transactivation expressed in human HepG2 cells at 0.1 to 20 uM preincubated 1 hr before TNFalpha challenge measured after 1 hr by luciferase reporter gene assay; format: cell-based

SMILES	Activity (HepG2 [1])	inhibition (HepG2 [2]) [%]	inhibition (HepG2 [3]) [%]	inhibition (HepG2 [4])	inhibition (HepG2 [5])	inhibition (HepG2 [6])
COC(=O)[C@@H](Cc1ccc(O)c(O)c1)OC(=O)/C=C/c1ccc(OC)c(O)c1	Non-toxic	28.7	45.4	Dose-dependent effect	Dose-dependent effect	
O=C(OCc1ccccc1)c1ccc(O)c(O[C@@H]2O[C@H](CO)[C@@H](O)[C@H](O)[C@H]2O)c1	Non-toxic					Active
COc1cc(/C=C/C(=O)O[C@H](Cc2ccc(O)c(O)c2)C(=O)O)ccc1O	Non-toxic					Active
CCOC(=O)[C@@H](Cc1ccc(O)c(O)c1)OC(=O)/C=C/c1ccc(O)c(O)c1 [ETHYL ROSMARINATE]	Non-toxic		57	Dose-dependent effect	Dose-dependent effect	
COC(=O)[C@@H](Cc1ccc(O)c(O)c1)OC(=O)/C=C/c1ccc(O)c(O)c1 [METHYL ROSMARINATE]	Non-toxic		44.3	Dose-dependent effect	Dose-dependent effect	
O=C(/C=C/c1ccc(O)c(O)c1)O[C@H](Cc1ccc(O)c(O)c1)C(=O)O [ROSMARINIC ACID]	Non-toxic		22.7			

Source: ChEMBL document CHEMBL1777696, “Anti-inflammatory activity of constituents from Glechoma hederacea var. longituba” (Bioorg Med Chem Lett, 2011)
